According to patent publication US20240408086A1, “USE OF LUVADAXISTAT FOR THE TREATMENT OF COGNITIVE IMPAIRMENT” (TAKEDA PHARMACEUTICAL COMPANY LIMITED, priority 2021, published 2024):

What was measured:
Mouse [1] = assay: Eyeblink conditioning (ataxia and schizophrenia), 10-day QD; format: in vivo; set-up: key: a + sign means efficacious; a − sign means not efficacious; settings: 10-Day Once Daily (QD)
Text: (§1) In Table 1, a + sign means efficacious, a − sign means not efficacious, and an empty cell indicates a dose was not tested.

[2] = system: patients with schizophrenia; assay: Phase 1b crossover study: eye-blink conditioning (EBC); format: in vivo, human
Text: (§2) NCT03359785 was a randomized, double-blind, placebo-controlled cross-over Phase 1b clinical trial in schizophrenia patients at a single site to evaluate PD effects, safety, tolerability, and pharmacokinetics of multiple oral doses of Compound (I). The objective of the study was to assess pharmacodynamic (PD) biomarkers of Compound (I) on measures related to cerebellar circuitry function and NMDA pharmacology that are known to be affected in schizophrenia.
The primary endpoint was the average percentage of conditioned responses during the eye-blink conditioning (EBC) test at day 8 of each treatment period (FIG. 10). EBC was used to assess the impact of Compound (I) on cerebellar circuitry function. EBC is a highly conserved reflex that is dependent on cerebellar circuitry, with NMDA receptors playing a key role. EBC is impaired in patients with schizophrenia compared with healthy controls.
All endpoints were analyzed as change from baseline compared to placebo within the same subjects. Statistical comparisons were conducted with an ANOVA model, with treatment sequence, period, and treatment as fixed effects, and subject as a random effect. […]

D-serine in cerebellum = assay: D-serine increase in cerebellum (6 hours); format: in vivo; set-up: key: a + sign means efficacious; a − sign means not efficacious; settings: Mouse
Text: DAAO inhibition increases levels of D-serine, a co-agonist of the N-methyl-d-aspartate (NMDA) receptor. […] Increases in cerebellum D-serine levels may also influence distal regions of the brain (such as the hippocampus) or cortical regions, through a mechanism that remains to be elucidated. […] In Table 1, a + sign means efficacious, a − sign means not efficacious, and an empty cell indicates a dose was not tested.

[3] = system: patients with schizophrenia; assay: Phase 1b crossover study: auditory steady state response (ASSR) gamma band power; format: in vivo, human
Text: as §2
(§3) Evoked potentials in the electroencephalogram were also tested to assess the impact of multiple oral doses of Compound (I) on NMDA-sensitive physiological responses that are affected in schizophrenia. Specifically, mismatch negativity (MMN), auditory steady state response (ASSR), and P300 were measured at baseline and following 8 days of treatment in both periods.
ASSR are evoked oscillatory responses that are entrained to the frequency and phase of temporally modulated stimuli. Individuals with schizophrenia experience subjective sensory anomalies and objective deficits on assessment of sensory function. These deficits can be produced by abnormal signaling in the sensory pathways and sensory cortex or by later-stage disturbances in the cognitive processing of such inputs. ASSR can be used to assess the integrity of sensory pathways including cortical processing. ASSR was measured at midline central electrode (Cz) of EEG.
(§4) All endpoints were analyzed as change from baseline compared to placebo within the same subjects. Statistical comparisons were conducted with an ANOVA model, with treatment sequence, period, and treatment as fixed effects, and subject as a random effect. As a supplementary analysis, an analysis of covariance model (ANCOVA) was applied to the primary endpoint with (period) baseline as a covariate, treatment sequence, period, treatment effect and baseline-by-treatment as fixed effects, and subject as a random effect.

[4] = system: patients with schizophrenia; assay: Phase 1b crossover study: mismatch negativity (MMN) amplitude; format: in vivo, human
Text: as §2, §3
MMN is an oddball event-related potential sensitive to NMDA-receptor pharmacology. MMN is an event related potential (ERP) evoked in response to unattended changes in background stimulation and is responsive to D-serine elevations. There is evidence of D-serine administration improving MMN in patients with schizophrenia. MMN reflects an automatic process of detecting a mismatch between a deviant stimulus and a sensory-memory trace (FIGS. 11A, 11B). Smaller amplitudes of MMN have been consistently identified in schizophrenia participants, with a large effect size compared with healthy controls. In this study, MMN amplitude was measured at Midline frontal electrode (Fz) of electroencephalogram [EEG].
as §4

Rat = assay: Attention set-shifting task (ASST) (executive function); format: in vivo; set-up: key: a + sign means efficacious; a − sign means not efficacious; settings: for Attention set-shifting task (ASST) (executive function): 14-Day Once Daily (QD); for ASST (executive function): Single Dose
Text: as §1

Mouse [5] = assay: BALB/C social interaction; format: in vivo; set-up: key: a + sign means efficacious; a − sign means not efficacious; settings: for BALB/C social interaction (negative symptoms): 14-Day Once Daily (QD); for BALB/C social interaction (acute): Single Dose
Text: as §1

[6] = system: scopolamine-induced EBC deficits; settings: preclinical studies; see Example 2 of WO 2015/132608; cited from earlier work

O=c1[nH]nc(CCc2ccc(C(F)(F)F)cc2)cc1O [Compound (I), luvadaxistat]
Eyeblink conditioning (ataxia and schizophrenia) (Mouse [1]; 0.1 mg/kg): + | Eyeblink conditioning (ataxia and schizophrenia) (Mouse [1]; 1 mg/kg): + | EBC change from baseline, effect size vs placebo (ANCOVA) ([2]; 50 mg for 8 days, p=0.109): 0.246 | EBC change from baseline, effect size vs placebo (ANCOVA) ([2]; 500 mg for 8 days, p=0.777): −0.198 | D-serine increase in cerebellum (6 hours) (D-serine in cerebellum; 14-Day Once Daily (QD), 0.03 mg/kg): − | D-serine increase in cerebellum (6 hours) (D-serine in cerebellum; 14-Day Once Daily (QD), 0.1 mg/kg): − | D-serine increase in cerebellum (6 hours) (D-serine in cerebellum; 14-Day Once Daily (QD), 0.3 mg/kg): + | D-serine increase in cerebellum (6 hours) (D-serine in cerebellum; 14-Day Once Daily (QD), 1 mg/kg): + | D-serine increase in cerebellum (6 hours) (D-serine in cerebellum; 14-Day Once Daily (QD), 3 mg/kg): + | D-serine increase in cerebellum (6 hours) (D-serine in cerebellum; Single Dose, 0.3 mg/kg): + | D-serine increase in cerebellum (6 hours) (D-serine in cerebellum; Single Dose, 1 mg/kg): + | D-serine increase in cerebellum (6 hours) (D-serine in cerebellum; Single Dose, 3 mg/kg): + | D-serine increase in cerebellum (6 hours) (D-serine in cerebellum; Single Dose, 10 mg/kg): + | ASSR gamma power, effect size vs placebo ([3]; 50 mg for 8 days): 0.575 | ASSR gamma power, change from baseline ([3]; 50 mg for 8 days, placebo −16.282, p=0.056): 2.135 | ASSR gamma power, effect size vs placebo ([3]; 500 mg for 8 days): 0.003 | ASSR gamma power, change from baseline ([3]; 500 mg for 8 days, placebo 9.203, p=0.495): 9.411 | MMN amplitude, effect size vs placebo ([4]; 50 mg for 8 days): −0.691 | MMN amplitude, LS means change from baseline ([4]; 50 mg for 8 days, placebo 0.669, p=0.0497): −0.239 | MMN amplitude, effect size vs placebo ([4]; 500 mg for 8 days): 0.389 | MMN amplitude, LS means change from baseline ([4]; 500 mg for 8 days, placebo −0.154, p=0.8517): 0.594 | Attention set-shifting task (ASST) (executive function) (Rat; 0.1 mg/kg): + | Attention set-shifting task (ASST) (executive function) (Rat; 1 mg/kg): + | Attention set-shifting task (ASST) (executive function) (Rat; 10 mg/kg): + | ASST (executive function) (Rat; 3 mg/kg): + | ASST (executive function) (Rat; 10 mg/kg): + | ASST (executive function) (Rat; 30 mg/kg): + | BALB/C social interaction (negative symptoms) (Mouse [5]; 0.001 mg/kg): − | BALB/C social interaction (negative symptoms) (Mouse [5]; 0.003 mg/kg): − | BALB/C social interaction (negative symptoms) (Mouse [5]; 0.01 mg/kg): + | BALB/C social interaction (negative symptoms) (Mouse [5]; 0.03 mg/kg): + | BALB/C social interaction (negative symptoms) (Mouse [5]; 0.1 mg/kg): + | BALB/C social interaction (negative symptoms) (Mouse [5]; 0.3 mg/kg): + | BALB/C social interaction (negative symptoms) (Mouse [5]; 1 mg/kg): + | BALB/C social interaction (negative symptoms) (Mouse [5]; 3 mg/kg): + | BALB/C social interaction (acute) (Mouse [5]; 0.3 mg/kg): − | BALB/C social interaction (acute) (Mouse [5]; 1 mg/kg): + | BALB/C social interaction (acute) (Mouse [5]; 3 mg/kg): + | Reversal of scopolamine-induced EBC deficits [6]: robust effects in reversing scopolamine-induced EBC deficits
